Measured values from article PMC7773212, “Dissecting the Mechanism of (R)-3-Hydroxybutyrate Dehydrogenase by Kinetic Isotope Effects, Protein Crystallography, and Computational Chemistry” (ACS Catalysis, 2020).
Each block holds one molecule with its values, some of them ahead of it.

Assays:
[1] = target: T1, PaHBDH (Psychrobacter arcticus, UniProt Q4FRT2); test: X-ray crystal structure, […] Å; type: binding; conditions: ternary dead-end complex with NAD+
T1 construct: gene Psyc_1428; homotetramer; landmarks: Gln99, Ser148, His150, Lys158, Tyr161, Val194, Gln202
T1 sequence (Q4FRT2 entry or part of it): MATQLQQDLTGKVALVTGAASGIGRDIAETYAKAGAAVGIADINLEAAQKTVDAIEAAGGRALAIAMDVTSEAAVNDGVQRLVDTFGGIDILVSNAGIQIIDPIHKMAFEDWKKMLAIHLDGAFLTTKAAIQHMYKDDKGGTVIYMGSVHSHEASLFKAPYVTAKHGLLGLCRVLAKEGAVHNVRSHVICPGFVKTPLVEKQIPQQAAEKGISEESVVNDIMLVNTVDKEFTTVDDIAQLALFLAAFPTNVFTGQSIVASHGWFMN

[2] = target: T2, AbHBDH (Acinetobacter baumannii, UniProt A0A1E3M3N6); test: X-ray crystal structure, […] Å; type: binding
T2 construct: gene AUO97_16470; homotetramer; landmarks: Gln95, Ser143, Asn145, Gly149, Phe150, Gly152, Lys153, Tyr156, Val189, Gln197
T2 sequence (A0A1E3M3N6 1-261): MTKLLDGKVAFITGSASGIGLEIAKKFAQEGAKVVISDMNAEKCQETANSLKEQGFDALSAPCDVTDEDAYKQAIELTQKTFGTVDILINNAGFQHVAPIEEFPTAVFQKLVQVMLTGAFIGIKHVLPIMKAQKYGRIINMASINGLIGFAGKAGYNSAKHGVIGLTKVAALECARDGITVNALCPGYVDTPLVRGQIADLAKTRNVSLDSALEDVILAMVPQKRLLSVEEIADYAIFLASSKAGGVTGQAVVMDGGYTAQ

[3] = target: T1, PaHBDH; test: NADH fluorescence titration with enzyme; type: binding; conditions: 100 mM HEPES, pH 7.0, 25 °C; 3 μM NADH
[4] = target: T2, AbHBDH; test: isothermal titration calorimetry; type: binding; conditions: 100 mM HEPES, pH 7.0, 25 °C; single-site model
[5] = target: T1, PaHBDH; test: X-ray crystal structure, […] Å; type: binding
[6] = target: (R)-3-hydroxybutyrate dehydrogenase from Acinetobacter baumannii (Acinetobacter baumannii); test: SEC; analytical gel filtration, Superdex 200 10/300 GL, room temperature, samples loaded at 1 mg/mL, 20 mM HEPES pH 8.0, MW standards
[7] = target: (R)-3-hydroxybutyrate dehydrogenase from Acinetobacter baumannii (Acinetobacter baumannii); test: crystal structure; ternary complexes with NAD+ and acetoacetate or 3-oxovalerate; tetramers formed with crystallographic symmetry; crystals grown at room temperature
[8] = target: (R)-3-hydroxybutyrate dehydrogenase from Psychrobacter arcticus (Psychrobacter arcticus); test: SEC; analytical gel filtration, Superdex 200 10/300 GL, room temperature, samples loaded at 1 mg/mL, 20 mM HEPES pH 8.0, MW standards
[9] = target: (R)-3-hydroxybutyrate dehydrogenase from Psychrobacter arcticus (Psychrobacter arcticus); test: crystal structure; ternary complexes with NAD+ and acetoacetate or 3-oxovalerate; tetramers formed with crystallographic symmetry; crystals grown at room temperature
[10] = ternary dead-end complex with NAD+
[11] = ternary dead-end complex with acetoacetate (also with 3-oxovalerate)

Molecule: CCC(=O)CC(=O)O [3-oxovalerate]
- X-ray crystal structure, 1.84 Å [1]: Fobs – Fcalc maps show clear density for NAD^+ and either acetoacetate or 3-oxovalerate
- X-ray crystal structure, 1.9 Å [2, 10]: Fobs – Fcalc maps show clear density for NAD^+ and either acetoacetate or 3-oxovalerate

Molecule: NC(=O)C1=CN([C@@H]2O[C@H](COP(=O)(O)OP(=O)(O)OC[C@H]3O[C@@H](n4cnc5c(N)ncnc54)[C@H](O)[C@@H]3O)[C@@H](O)[C@H]2O)C=CC1 [NADH]
- Kd [3]: 7 ± 2 µM
- Kd [4]: 14 ± 8 µM

Molecule: NC(=O)c1ccc[n+]([C@@H]2O[C@H](COP(=O)(O)OP(=O)(O)OC[C@H]3O[C@@H](n4cnc5c(N)ncnc54)[C@H](O)[C@@H]3O)[C@@H](O)[C@H]2O)c1 [NAD^+]
- X-ray crystal structure, 1.3 Å [5, 11]: crystal structures of the ternary complexes PaHBDH:NAD^+:AcAc, AbHBDH:NAD^+:AcAc
- X-ray crystal structure, 1.9 Å [2, 11]: crystal structures of the ternary complexes PaHBDH:NAD^+:AcAc, AbHBDH:NAD^+:AcAc

Molecule: CC(=O)CC(=O)O [acetoacetate]
- X-ray crystal structure, 1.3 Å ([5]; ternary dead-end complex with NAD+, two conformations of acetoacetate): crystal structures of the ternary complexes PaHBDH:NAD^+:AcAc, AbHBDH:NAD^+:AcAc
- X-ray crystal structure, 1.9 Å [2, 10]: crystal structures of the ternary complexes PaHBDH:NAD^+:AcAc, AbHBDH:NAD^+:AcAc

- stoichiometry N [6]: 4
- stoichiometry N [7]: 4
Molecule: (R)-3-hydroxybutyrate dehydrogenase from Acinetobacter baumannii (enzyme)

- stoichiometry N [8]: 4
- stoichiometry N [9]: 4
Molecule: (R)-3-hydroxybutyrate dehydrogenase from Psychrobacter arcticus (enzyme)
